{
  "source": "patent US20240325366A1",
  "about": "“SELECTIVE CDK9 INHIBITOR FOR THE TREATMENT OF A RAS MUTANT CANCER” (VINCERX PHARMA, INC., priority 2021, published 2024)",
  "type_in_all_cases": "cell-based",
  "key": {"LCLC-97TM1": {"system": "LCLC-97TM1", "experiment": "antiproliferative activity (OmniScreen)", "details": "Homo sapiens; LCLC-97TM1, Lung, 72 hours; read-out: Absolute IC50", "text": "(§1) To determine associations of genomic alterations with compound 1′ sensitivity, 458 were mapped to a cell line present in DepMap (21Q3). Of the 458 cell lines mapped, there were 440 with available mutation data in DepMap. Cell line mutation and copy number data were accessed and for mutations, the data were filtered to include variants with a “damaging” or “other non-conserving” annotation only, in order to select variants which are more likely to be functionally important. The top quartile of cell lines based on their compound 1′IC50 values were defined as groups for comparison with the bottom quartile."}, "Panc 05.04": {"system": "Panc 05.04", "experiment": "antiproliferative activity (OmniScreen)", "details": "Panc 05.04, Pancreas, 72 hours; read-out: Absolute IC50", "text": "as §1"}, "UM-UC-3": {"system": "UM-UC-3", "experiment": "antiproliferative activity (OmniScreen)", "details": "Homo sapiens, UMUC3; UM-UC-3, Bladder, 72 hours; read-out: Absolute IC50", "text": "as §1"}, "LS513": {"system": "LS513", "experiment": "antiproliferative activity (OmniScreen)", "details": "Homo sapiens, LS-513; LS513, Large intestine/Colorectum, 72 hours; read-out: Absolute IC50", "text": "as §1"}, "SU.86.86": {"system": "SU.86.86", "experiment": "antiproliferative activity (OmniScreen)", "details": "Homo sapiens; SU.86.86, Pancreas, 72 hours; read-out: Absolute IC50", "text": "as §1"}, "MOLP8": {"system": "MOLP8", "experiment": "antiproliferative activity (OmniScreen)", "details": "Homo sapiens, MOLP-8; MOLP8, Blood/Myeloma, 72 hours; read-out: Absolute IC50", "text": "as §1"}, "HCC44": {"system": "HCC44", "experiment": "antiproliferative activity (OmniScreen)", "details": "Homo sapiens; HCC44, Lung, 72 hours; read-out: Absolute IC50", "text": "as §1"}, "SU-DHL-10": {"system": "SU-DHL-10", "experiment": "antiproliferative activity (OmniScreen)", "details": "Homo sapiens, SU-DHL10; SU-DHL-10, Lymphoma, 72 hours; read-out: Absolute IC50", "text": "as §1"}, "RBE": {"system": "RBE", "experiment": "antiproliferative activity (OmniScreen)", "details": "Liver/Bile duct, 72 hours, read-out: Absolute IC50", "text": "as §1"}, "HEC-1-B": {"system": "HEC-1-B", "experiment": "antiproliferative activity (OmniScreen)", "details": "Homo sapiens, Uterus, 72 hours, read-out: Absolute IC50", "text": "as §1"}, "DV-90": {"system": "DV-90", "experiment": "antiproliferative activity (OmniScreen)", "details": "Homo sapiens; DV-90, Lung, 72 hours; read-out: Absolute IC50", "text": "as §1"}, "143B": {"system": "143B", "experiment": "antiproliferative activity (OmniScreen)", "details": "Homo sapiens, Bone, 72 hours, read-out: Absolute IC50", "text": "as §1"}, "NCI-H1944": {"system": "NCI-H1944", "experiment": "antiproliferative activity (OmniScreen)", "details": "Homo sapiens; NCI-H1944, Lung, 72 hours; read-out: Absolute IC50", "text": "as §1"}, "NCI-H2122": {"system": "NCI-H2122", "experiment": "antiproliferative activity (OmniScreen)", "details": "Homo sapiens; NCI-H2122, Lung, 72 hours; read-out: Absolute IC50", "text": "as §1"}, "CoC1/DDP": {"system": "CoC1/DDP", "experiment": "antiproliferative activity (OmniScreen)", "details": "Ovary, 72 hours, read-out: Absolute IC50", "text": "as §1"}, "Calu-6": {"system": "Calu-6", "experiment": "antiproliferative activity (OmniScreen)", "details": "Homo sapiens; Calu-6, Lung, 72 hours; read-out: Absolute IC50", "text": "as §1"}, "NCI-H358": {"system": "NCI-H358", "experiment": "antiproliferative activity (OmniScreen)", "details": "Homo sapiens; NCI-H358, Lung, 72 hours; read-out: Absolute IC50", "text": "as §1"}, "[1]": {"system": "panel of 500 tumor cell lines", "experiment": "antiproliferative activity, panel of 500 tumor cell lines (OmniScreen)", "text": "as §1"}, "[2]": {"system": "KRAS mutant colorectal and lung cancer cell lines", "experiment": "in vitro cytotoxicity, MTT assay, summary", "details": "multiple KRAS mutant colorectal and lung cancer cell lines", "experimental": "(§2) Cultivation of cells was performed according to standard procedures with the media recommended by the provider. The cells, in a total volume of 100 μL, were seeded in a 96-well plate with a white bottom (#3610). After a 24h incubation period at 37° C. and 5% CO2 the medium was exchanged by adding 90 μL fresh medium. The treatment started by adding the test compound in 10 μL of culture medium to the cells in triplicates. Concentrations ranging from 10^−6 M to 10^−13 M were chosen. The proliferation was detected using the MTT assay (ATCC). At the end of the incubation period the MTT reagent was added to all samples for 4h. Lysis of the cells followed by addition of the detergent was done overnight. The formed dye was detected at 570 nm. The proliferation of cells was defined as the 100% value."}, "SW837": {"system": "SW837", "experiment": "in vitro cytotoxicity, MTT assay", "details": "Homo sapiens; SW837, Colorectal, KRAS pG12C", "experimental": "as §2"}, "HCT116": {"system": "HCT116", "experiment": "in vitro cytotoxicity, MTT assay", "details": "Homo sapiens, HCT-116; HCT116, Colorectal, KRAS p.G13D", "experimental": "as §2"}, "A549": {"system": "A549", "experiment": "in vitro cytotoxicity, MTT assay", "details": "Homo sapiens; A549, Lung, KRAS p.G12S", "experimental": "as §2"}, "SW480": {"system": "SW480", "experiment": "in vitro cytotoxicity, MTT assay", "details": "Homo sapiens; SW480, Colorectal, KRAS p.G12V", "experimental": "as §2"}, "NCI-H460": {"system": "NCI-H460", "experiment": "in vitro cytotoxicity, MTT assay", "details": "Homo sapiens; NCI-H460, Lung, KRAS p.Q61H", "experimental": "as §2"}, "MIAPaCa2": {"system": "MIAPaCa2", "experiment": "in vitro cytotoxicity, MTT assay", "details": "Homo sapiens, MIA PaCa-2; MIAPaCa2, Pancreatic, KRAS pG12C", "experimental": "as §2"}, "HT-29": {"system": "HT-29", "experiment": "in vitro cytotoxicity, MTT assay", "details": "Homo sapiens; HT-29, Colorectal, KRAS WT", "experimental": "as §2"}, "HCT15": {"system": "HCT15", "experiment": "in vitro cytotoxicity, MTT assay", "details": "Homo sapiens, HCT-15; HCT15, Colorectal, KRAS p.G13D", "experimental": "as §2"}, "COLO205": {"system": "COLO205", "experiment": "in vitro cytotoxicity, MTT assay", "details": "Homo sapiens, COLO 205; COLO205, Colorectal, KRAS WT", "experimental": "as §2"}, "HCT8": {"system": "HCT8", "experiment": "in vitro cytotoxicity, MTT assay", "details": "Homo sapiens, HCT-8; HCT8, Colorectal, KRAS WT", "experimental": "as §2"}, "SW620": {"system": "SW620", "experiment": "in vitro cytotoxicity, MTT assay", "details": "Homo sapiens, SW-620; SW620, Colorectal, KRAS p.G12V", "experimental": "as §2"}},
  "note": "Where two headings read alike, the source gives them in different places.",
  "data": [
    {"smiles": "COc1cc(F)ccc1-c1cc(Nc2cc(CS(C)(=N)=O)ccn2)ncc1F", "note": "(single isomer, unassigned; (+)) [Compound 1′, (+)5-fluoro-4-(4-fluoro-2-methoxyphenyl)-N-{4-[(S-methylsulfonimidoyl)methyl]pyridin-2-yl}pyridin-2-amine]", "values": [
      {"measurement": "IC50", "setting": "LCLC-97TM1", "result": 0.046, "unit": "µM"},
      {"measurement": "IC50", "setting": "Panc 05.04", "result": 0.038, "unit": "µM"},
      {"measurement": "IC50", "setting": "UM-UC-3", "result": 0.067, "unit": "µM"},
      {"measurement": "IC50", "setting": "LS513", "result": 0.051, "unit": "µM"},
      {"measurement": "IC50", "setting": "SU.86.86", "result": 0.082, "unit": "µM"},
      {"measurement": "IC50", "setting": "MOLP8", "result": 0.08, "unit": "µM"},
      {"measurement": "IC50", "setting": "HCC44", "result": 0.09, "unit": "µM"},
      {"measurement": "IC50", "setting": "SU-DHL-10", "result": 0.074, "unit": "µM"},
      {"measurement": "IC50", "setting": "RBE", "result": 0.072, "unit": "µM"},
      {"measurement": "IC50", "setting": "HEC-1-B", "result": 0.067, "unit": "µM"},
      {"measurement": "IC50", "setting": "DV-90", "result": 0.09, "unit": "µM"},
      {"measurement": "IC50", "setting": "143B", "result": 0.073, "unit": "µM"},
      {"measurement": "IC50", "setting": "NCI-H1944", "result": 0.075, "unit": "µM"},
      {"measurement": "IC50", "setting": "NCI-H2122", "result": 0.07, "unit": "µM"},
      {"measurement": "IC50", "setting": "CoC1/DDP", "result": 0.072, "unit": "µM"},
      {"measurement": "IC50", "setting": "Calu-6", "result": 0.039, "unit": "µM"},
      {"measurement": "IC50", "setting": "NCI-H358", "result": 0.041, "unit": "µM"},
      {"measurement": "IC50", "setting": "[1]; N=110 cell lines with mutation data in DepMap, read-out: IC50 bottom quartile (most sensitive cell lines)", "result": "≤ 0.0905", "unit": "µM"},
      {"measurement": "IC50", "setting": "[1]; N=130 cell lines with mutation data in DepMap, read-out: IC50 top quartile (least sensitive cell lines)", "result": "≥ 0.152", "unit": "µM"},
      {"measurement": "IC50", "setting": "[1]; panel of 500 tumor cell lines, 72 hours of treatment, read-out: IC50 range, lower end", "result": 0.028, "unit": "µM"},
      {"measurement": "IC50", "setting": "[1]; panel of 500 tumor cell lines, 72 hours of treatment, read-out: IC50 range, upper end", "result": 2.1, "unit": "µM"},
      {"measurement": "IC50", "setting": "[1]; panel of 500 tumor cell lines, 72 hours of treatment, read-out: mean IC50", "result": 0.113, "unit": "µM"},
      {"measurement": "activity against KRAS mutant cancer cell lines", "setting": "[2]", "result": "active"},
      {"measurement": "IC50", "setting": "SW837", "result": 0.62, "unit": "µM"},
      {"measurement": "IC50", "setting": "HCT116", "result": 0.046, "unit": "µM"},
      {"measurement": "IC50", "setting": "A549", "result": 0.098, "unit": "µM"},
      {"measurement": "IC50", "setting": "SW480", "result": 0.143, "unit": "µM"},
      {"measurement": "IC50", "setting": "NCI-H460", "result": 0.075, "unit": "µM"},
      {"measurement": "IC50", "setting": "MIAPaCa2", "result": 0.128, "unit": "µM"},
      {"measurement": "IC50", "setting": "HT-29", "result": 0.083, "unit": "µM"},
      {"measurement": "IC50", "setting": "HCT15", "result": 0.0335, "unit": "µM"},
      {"measurement": "IC50", "setting": "COLO205", "result": 0.07, "unit": "µM"},
      {"measurement": "IC50", "setting": "HCT8", "result": 0.083, "unit": "µM"},
      {"measurement": "IC50", "setting": "SW620", "result": "> 0.5", "unit": "µM"}
    ]}
  ]
}
